Where a name gives a salt, the structure may show the parent alone.
Molecular target: T1, calpain-I isolated from human erythrocytes (Homo sapiens, UniProt P07384)
T1 construct: calpain-I—isolated from human erythrocytes (Calbiochem #208713); purchased Calbiochem 208713; host or cells: human erythrocytes (native tissue isolate)
T1 sequence (P07384 1-714): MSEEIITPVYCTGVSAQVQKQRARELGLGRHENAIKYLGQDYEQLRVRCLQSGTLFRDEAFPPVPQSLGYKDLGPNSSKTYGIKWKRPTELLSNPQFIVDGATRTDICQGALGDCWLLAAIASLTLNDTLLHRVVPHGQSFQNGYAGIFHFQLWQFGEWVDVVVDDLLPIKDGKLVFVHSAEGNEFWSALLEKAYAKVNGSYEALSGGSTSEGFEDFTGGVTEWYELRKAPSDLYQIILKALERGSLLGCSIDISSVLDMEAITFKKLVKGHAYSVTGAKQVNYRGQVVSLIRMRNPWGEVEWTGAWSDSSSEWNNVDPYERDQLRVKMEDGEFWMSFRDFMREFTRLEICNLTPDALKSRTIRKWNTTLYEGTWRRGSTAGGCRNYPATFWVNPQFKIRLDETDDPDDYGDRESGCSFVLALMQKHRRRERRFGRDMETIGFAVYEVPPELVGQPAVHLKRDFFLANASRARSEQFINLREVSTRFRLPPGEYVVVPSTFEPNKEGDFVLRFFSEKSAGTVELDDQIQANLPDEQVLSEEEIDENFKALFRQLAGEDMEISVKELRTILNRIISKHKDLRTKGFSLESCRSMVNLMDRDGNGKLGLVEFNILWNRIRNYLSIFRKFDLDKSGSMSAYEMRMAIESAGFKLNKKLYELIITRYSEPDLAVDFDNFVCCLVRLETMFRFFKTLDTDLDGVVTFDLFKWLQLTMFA
T1 sequence (P04632 1-268 partner): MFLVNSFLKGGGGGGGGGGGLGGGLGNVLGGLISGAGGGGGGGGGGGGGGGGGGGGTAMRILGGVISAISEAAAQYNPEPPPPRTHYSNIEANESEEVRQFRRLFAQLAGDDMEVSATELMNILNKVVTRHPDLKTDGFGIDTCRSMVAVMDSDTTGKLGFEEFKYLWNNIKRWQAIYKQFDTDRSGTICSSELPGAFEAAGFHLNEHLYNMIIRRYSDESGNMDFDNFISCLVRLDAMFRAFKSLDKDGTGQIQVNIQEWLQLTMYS
Assay: Calpain I kinetic fluorescence enzyme inhibition assay
Assay type: biochemical
Settings: apparent Ki from IC50 by Cheng-Prussoff
Experimental: Testing for blockade of the corresponding enzymic activities was carried out by means of kinetic fluorescence assays (excitation 390 nm, emission 460 nm).
Apparent Ki values were calculated from the experimentally determined IC50 values by the Cheng-Prussoff relation assuming a reversible competitive enzyme inhibition.
20 nM calpain-I—isolated from human erythrocytes (Calbiochem #208713), 100 μM Suc-Leu-Tyr-AMC (Bachem #I-1355) as substrate in buffer with 62 mM imidazole, 0.3 mM CaCl2, 0.10% CHAPS, 0.05% BSA, 1 mM DTT at pH 7.3 and room temperature.

Structure (SMILES)	Ki [µM]
CC1CN(Cc2ccn(-c3ncccc3C(=O)NC(Cc3ccccc3)C(=O)C(N)=O)n2)CC(C)O1 (single isomer, unassigned) [Example 2a, N-(4-Amino-3,4-dioxo-1-phenylbutan-2-yl)-2-(3-((2,6-dimethylmorpholino)-methyl)-1H-pyrazol-1-yl)nicotinamide]	< 0.25
CC1CN(Cc2ccn(-c3ncccc3C(=O)NC(Cc3ccccc3)C(=O)C(N)=O)n2)CC(C)O1 (single isomer, unassigned) [Example 2b, N-(4-Amino-3,4-dioxo-1-phenylbutan-2-yl)-2-(3-((2,6-dimethylmorpholino)-methyl)-1H-pyrazol-1-yl)nicotinamide]	< 0.25
NC(=O)C(=O)C(Cc1ccccc1)NC(=O)c1cccnc1-n1ccc(CN2CCOC3CCCCC32)n1 (single isomer, unassigned) [Example 8a, 2-(3-((2H-Benzo[b][1,4]oxazin-4(3H,4aH,5H,6H,7H,8H,8aH)-yl)methyl)-1H-pyrazol-1-yl)-N-(4-amino-3,4-dioxo-1-phenylbutan-2-yl)nicotinamide trifluoroacetate]	< 0.25
NC(=O)C(=O)C(Cc1ccccc1)NC(=O)c1cccnc1-n1ccc(CN2CCOC3CCCCC32)n1 (single isomer, unassigned) [Example 8b, 2-(3-((2H-Benzo[b][1,4]oxazin-4(3H,4aH,5H,6H,7H,8H,8aH)-yl)methyl)-1H-pyrazol-1-yl)-N-(4-amino-3,4-dioxo-1-phenylbutan-2-yl)nicotinamide trifluoroacetate]	< 0.25
NC(=O)C(=O)C(Cc1ccccc1)NC(=O)c1cccnc1-n1ccc(CN2CCOCC2)n1 (stereo not shown) [Example 1, N-(4-Amino-3,4-dioxo-1-phenylbutan-2-yl)-2-(3-(morpholinomethyl)-1H-pyrazol-1-yl)nicotinamide]	< 0.25
NC(=O)C(=O)C(Cc1ccccc1)NC(=O)c1cccnc1-n1ccc(CN2CCC(F)(F)CC2)n1 (stereo not shown) [Example 3, N-(4-Amino-3,4-dioxo-1-phenylbutan-2-yl)-2-(3-((4,4-difluoropiperidin-1-yl)methyl)-1H-pyrazol-1-yl)nicotinamide trifluoroacetate]	< 0.25
NC(=O)C(=O)C(Cc1ccccc1)NC(=O)c1cccnc1-n1cc2c(n1)CCN(Cc1ccccc1)C2 (stereo not shown) [Example 4, N-(4-Amino-3,4-dioxo-1-phenylbutan-2-yl)-2-(5-benzyl-4,5,6,7-tetrahydro-2H-pyrazolo[4,3-c]pyridin-2-yl)nicotinamide]	< 0.25
NC(=O)C(=O)C(Cc1ccccc1)NC(=O)c1cccnc1-n1ccc(CN2CCC(c3ccccc3)CC2)n1 (stereo not shown) [Example 5, N-(4-Amino-3,4-dioxo-1-phenylbutan-2-yl)-2-(3-((4-phenylpiperidin-1-yl)methyl)-1H-pyrazol-1-yl)nicotinamide]	< 0.25
NC(=O)C(=O)C(Cc1ccccc1)NC(=O)c1cccnc1-n1ccc(CN2CCOc3ccccc32)n1 (stereo not shown) [Example 6, 2-(3-((2H-Benzo[b][1,4]oxazin-4(3H)-yl)methyl)-1H-pyrazol-1-yl)-N-(4-amino-3,4-dioxo-1-phenylbutan-2-yl)nicotinamide]	< 0.25
NC(=O)C(=O)C(Cc1ccccc1)NC(=O)c1cccnc1-n1ccc(CN2CCCCC2)n1 (stereo not shown) [Example 7, N-(4-Amino-3,4-dioxo-1-phenylbutan-2-yl)-2-(3-(piperidin-1-ylmethyl)-1H-pyrazol-1-yl)nicotinamide hydrochloride]	< 0.25
NC(=O)C(=O)C(Cc1ccccc1)NC(=O)c1cccnc1-n1ccc(CN2CCOC(c3ccccc3)C2)n1 (stereo not shown) [Example 9, N-(4-Amino-3,4-dioxo-1-phenylbutan-2-yl)-2-(3-((2-phenylmorpholino)methyl)-1H-pyrazol-1-yl)nicotinamide trifluoroacetate]	< 0.25
NC(=O)C(=O)C(Cc1ccccc1)NC(=O)c1cccnc1-n1ccc(CN2CCCC2)n1 (stereo not shown) [Example 10, N-(4-Amino-3,4-dioxo-1-phenylbutan-2-yl)-2-(3-(pyrrolidin-1-ylmethyl)-1H-pyrazol-1-yl)nicotinamide trifluoroacetate]	0.25 to 0.4
NC(=O)C(=O)C(Cc1ccccc1)NC(=O)c1cccnc1-n1ccc(CN2CCC2)n1 (stereo not shown) [Example 11, N-(4-Amino-3,4-dioxo-1-phenylbutan-2-yl)-2-(3-(azetidin-1-ylmethyl)-1H-pyrazol-1-yl)nicotinamide trifluoroacetate]	0.25 to 0.4
NC(=O)C(=O)C(Cc1ccccc1)NC(=O)c1cccnc1-n1ccc(CN2CCC(C(F)(F)F)CC2)n1 (stereo not shown) [Example 12, N-(4-Amino-3,4-dioxo-1-phenylbutan-2-yl)-2-(3-((4-(trifluoromethyl)piperidin-1-yl)methyl)-1H-pyrazol-1-yl)nicotinamide trifluoroacetate]	< 0.25
NC(=O)C(=O)C(Cc1ccccc1)NC(=O)c1cccnc1-n1ccc(CN2CC3CC(F)(F)CC3C2)n1 (stereo not shown) [Example 13, N-(4-amino-3,4-dioxo-1-phenyl-2-butanyl)-2-{3-[(5,5-difluorohexahydrocyclopenta[c]pyrrol-2(1H)-yl)methyl]-1H-pyrazol-1-yl}nicotinamide trifluoroacetate]	< 0.25
NC(=O)C(=O)C(Cc1ccccc1)NC(=O)c1cccnc1-n1ccc(CN2CC3COCC3C2)n1 (stereo not shown) [Example 14, N-(4-Amino-3,4-dioxo-1-phenylbutan-2-yl)-2-(3-((dihydro-1H-furo[3,4-c]pyrrol-5(3H,6H,6aH)-yl)methyl)-1H-pyrazol-1-yl)nicotinamide trifluoroacetate]	< 0.25
NC(=O)C(=O)C(Cc1ccccc1)NC(=O)c1cccnc1-n1ccc(CN2CCc3ccccc32)n1 (stereo not shown) [Example 15, N-(4-Amino-3,4-dioxo-1-phenylbutan-2-yl)-2-(3-(indolin-1-ylmethyl)-1H-pyrazol-1-yl)nicotinamide]	< 0.25
CN(Cc1ccn(-c2ncccc2C(=O)NC(Cc2ccccc2)C(=O)C(N)=O)n1)c1ccccc1 (stereo not shown) [Example 16, N-(4-Amino-3,4-dioxo-1-phenylbutan-2-yl)-2-(3-((methyl(phenyl)amino)methyl)-1H-pyrazol-1-yl)nicotinamide]	< 0.25
NC(=O)C(=O)C(Cc1ccccc1)NC(=O)c1cccnc1-n1ccc(CN2CCC3(CC2)COC3)n1 (stereo not shown) [Example 17, 2-(3-(2-Oxa-7-azaspiro[3.5]nonan-7-ylmethyl)-1H-pyrazol-1-yl)-N-(4-amino-3,4-dioxo-1-phenylbutan-2-yl)nicotinamide trifluoroacetate]	< 0.25
CCN(CC)Cc1ccn(-c2ncccc2C(=O)NC(Cc2ccccc2)C(=O)C(N)=O)n1 (stereo not shown) [Example 18, N-(4-Amino-3,4-dioxo-1-phenylbutan-2-yl)-2-(3-((diethylamino)methyl)-1H-pyrazol-1-yl)nicotinamide trifluoroacetate]	0.25 to 0.4
NC(=O)C(=O)C(Cc1ccccc1)NC(=O)c1cccnc1-n1ccc(CN2Cc3ccccc3C2)n1 (stereo not shown) [Example 19, N-(4-Amino-3,4-dioxo-1-phenylbutan-2-yl)-2-(3-(isoindolin-2-ylmethyl)-1H-pyrazol-1-yl)nicotinamide]	< 0.25
CN(Cc1ccn(-c2ncccc2C(=O)NC(Cc2ccccc2)C(=O)C(N)=O)n1)C1CCCCC1 (stereo not shown) [Example 20, N-(4-Amino-3,4-dioxo-1-phenylbutan-2-yl)-2-(3-((cyclohexyl(methyl)amino)methyl)-1H-pyrazol-1-yl)nicotinamide trifluoroacetate]	< 0.25
